# pIC50: −log10 of the molar value.
# Biological target: ROCK2 (Homo sapiens (Human), UniProt O75116)
# Assay: ROCK assay (Caliper LABCHIP peptide phosphorylation, 5 μM ATP)
# Type: biochemical
# Conditions: 1.5 μM peptide substrate
# Chain of ROCK2 (O75116 whole entry, species assumed): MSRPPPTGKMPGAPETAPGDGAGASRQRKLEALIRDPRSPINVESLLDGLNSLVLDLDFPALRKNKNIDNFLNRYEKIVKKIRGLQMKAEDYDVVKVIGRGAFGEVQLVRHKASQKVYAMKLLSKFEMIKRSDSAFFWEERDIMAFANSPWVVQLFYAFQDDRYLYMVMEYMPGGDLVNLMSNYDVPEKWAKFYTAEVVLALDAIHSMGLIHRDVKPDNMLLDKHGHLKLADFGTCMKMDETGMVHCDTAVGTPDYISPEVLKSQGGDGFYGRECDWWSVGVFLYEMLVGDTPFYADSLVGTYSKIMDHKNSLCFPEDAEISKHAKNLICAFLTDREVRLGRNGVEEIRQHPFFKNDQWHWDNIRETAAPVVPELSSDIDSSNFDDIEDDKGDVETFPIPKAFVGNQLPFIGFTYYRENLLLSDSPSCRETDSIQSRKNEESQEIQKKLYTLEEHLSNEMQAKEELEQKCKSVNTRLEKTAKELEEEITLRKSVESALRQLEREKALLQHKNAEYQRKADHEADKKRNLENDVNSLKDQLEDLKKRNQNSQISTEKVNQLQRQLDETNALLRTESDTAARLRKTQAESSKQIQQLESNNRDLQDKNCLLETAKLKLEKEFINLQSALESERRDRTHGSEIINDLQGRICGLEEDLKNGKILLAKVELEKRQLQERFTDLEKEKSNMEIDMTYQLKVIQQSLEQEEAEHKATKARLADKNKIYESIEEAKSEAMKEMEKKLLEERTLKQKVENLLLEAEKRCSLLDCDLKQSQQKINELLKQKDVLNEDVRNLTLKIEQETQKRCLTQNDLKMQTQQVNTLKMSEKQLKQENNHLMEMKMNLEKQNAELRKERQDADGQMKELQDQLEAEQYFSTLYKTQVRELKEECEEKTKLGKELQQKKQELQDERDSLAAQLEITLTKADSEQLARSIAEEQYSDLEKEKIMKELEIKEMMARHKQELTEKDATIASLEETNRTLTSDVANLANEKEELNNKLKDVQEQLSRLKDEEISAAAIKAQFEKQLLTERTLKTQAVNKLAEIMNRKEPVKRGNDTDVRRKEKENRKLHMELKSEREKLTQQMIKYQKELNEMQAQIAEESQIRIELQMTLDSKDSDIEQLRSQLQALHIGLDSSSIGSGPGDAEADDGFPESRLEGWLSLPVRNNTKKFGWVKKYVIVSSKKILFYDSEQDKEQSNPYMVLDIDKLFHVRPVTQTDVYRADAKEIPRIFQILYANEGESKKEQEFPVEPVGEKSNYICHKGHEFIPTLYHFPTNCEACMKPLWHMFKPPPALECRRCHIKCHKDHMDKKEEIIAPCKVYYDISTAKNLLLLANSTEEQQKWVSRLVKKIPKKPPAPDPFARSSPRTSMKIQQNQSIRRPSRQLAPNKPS
row,SMILES,pIC50
1,"O=C(CCOc1ccccc1)Nc1ccc2c(c1)OCc1cnccc1-2 [Example I-2, N-(5H-chromeno[3,4-c]pyridin-8-yl)-3-phenoxypropanamide]",7.09
2,"N[C@@H](CCc1ccccc1)C(=O)Nc1ccc2c(c1)OCc1cnccc1-2 [Example I-3, (S)-2-amino-N-(5H-chromeno[3,4-c]pyridin-8-yl)-4-phenylbutanamide]",6.55
3,"N[C@H](CCc1ccccc1)C(=O)Nc1ccc2c(c1)OCc1cnccc1-2 [Example I-4, (R)-2-amino-N-(5H-chromeno[3,4-c]pyridin-8-yl)-4-phenylbutanamide]",6.89
4,"CC(C(=O)Nc1ccc2c(c1)OCc1cnccc1-2)c1ccccc1Cl (stereo not shown) [Example I-5, 2-(2-chlorophenyl)-N-(5H-chromeno [3,4-c]pyridin-8-yl) propanamide]",7.47
5,"O=C(Cc1ccc(F)cc1Cl)Nc1ccc2c(c1)OCc1cnccc1-2 [Example I-10, 2-(2-chloro-4-fluorophenyl)-N-(5H-chromeno[3,4-c]pyridin-8-yl)acetamide]",8.20
6,"O=C(Cc1cccc(Cl)c1)Nc1ccc2c(c1)OCc1cnccc1-2 [Example I-11, 2-(3-chlorophenyl)-N-(5H-chromeno [3,4-c]pyridin-8-yl) acetamide]",7.61
7,"Cc1cccc(CC(=O)Nc2ccc3c(c2)OCc2cnccc2-3)c1 [Example I-12, N-(5H-chromeno[3,4-c]pyridin-8-yl)-2-m-tolylacetamide]",7.13
8,"O=C(Cc1ccc(Cl)cc1)Nc1ccc2c(c1)OCc1cnccc1-2 [Example I-13, 2-(4-chlorophenyl)-N-(5H-chromeno [3,4-c]pyridin-8-yl) acetamide]",6.87
9,"O=C(Cc1ccc(Cl)cc1Cl)Nc1ccc2c(c1)OCc1cnccc1-2 [Example I-14, N-(5H-chromeno [3,4-c]pyridin-8-yl)-2-(2,4-dichlorophenyl) acetamide]",7.26
10,"Cc1ccccc1CC(=O)Nc1ccc2c(c1)OCc1cnccc1-2 [Example I-15, N-(5H-chromeno[3,4-c]pyridin-8-yl)-2-o-tolylacetamide]",7.78
11,"Cc1cc(C)cc(CC(=O)Nc2ccc3c(c2)OCc2cnccc2-3)c1 [Example I-16, N-(5H-chromeno[3,4-c]pyridin-8-yl)-2-(3,5-dimethylphenyl) acetamide]",6.96
12,"O=C(Cc1cc(F)cc(F)c1)Nc1ccc2c(c1)OCc1cnccc1-2 [Example I-17, N-(5H-chromeno[3,4-c]pyridin-8-yl)-2-(3,5-difluorophenyl) acetamide]",7.42
13,"COc1cc(CC(=O)Nc2ccc3c(c2)OCc2cnccc2-3)cc(OC)c1 [Example I-18, N-(5H-chromeno[3,4-c]pyridin-8-yl)-2-(3,5-dimethoxyphenyl) acetamide]",6.41
14,"COc1ccc(CC(=O)Nc2ccc3c(c2)OCc2cnccc2-3)cc1OC [Example I-19, N-(5H-chromeno[3,4-c]pyridin-8-yl)-2-(3,4-dimethoxyphenyl) acetamide]",5.60
15,"CS(=O)(=O)c1ccc(CC(=O)Nc2ccc3c(c2)OCc2cnccc2-3)cc1 [Example I-20, N-(5H-chromeno[3,4-c]pyridin-8-yl)-2-(4-(methylsulfonyl)phenyl)acetamide]",5.75
16,"O=C(Cc1c(Cl)cccc1Cl)Nc1ccc2c(c1)OCc1cnccc1-2 [Example I-21, N-(5H-chromeno[3,4-c]pyridin-8-yl)-2-(2,6-dichlorophenyl) acetamide]",6.79
17,"O=C(Cc1cccc(C(F)(F)F)c1)Nc1ccc2c(c1)OCc1cnccc1-2 [Example I-22, N-(5H-chromeno[3,4-c]pyridin-8-yl)-2-(3-(trifluoromethyl)phenyl)acetamide]",6.80

row,SMILES,pIC50
1,"O=C(Cc1cc(F)cc(C(F)(F)F)c1)Nc1ccc2c(c1)OCc1cnccc1-2 [Example I-23, N-(5H-chromeno[3,4-c]pyridin-8-yl)-2-(3-fluoro-5-(trifluoromethyl)phenyl)acetamide]",6.43
2,"Cc1cc(F)ccc1CC(=O)Nc1ccc2c(c1)OCc1cnccc1-2 [Example I-24, N-(5H-chromeno[3,4-c]pyridin-8-yl)-2-(4-fluoro-2-methylphenyl) acetamide]",7.95
3,"CSc1ccc(CC(=O)Nc2ccc3c(c2)OCc2cnccc2-3)cc1 [Example I-25, N-(5H-chromeno[3,4-c]pyridin-8-yl)-2-(4-(methylthio)phenyl) acetamide]",6.53
4,"O=C(Cc1ccc(F)cc1)Nc1ccc2c(c1)OCc1cnccc1-2 [Example I-26, N-(5H-chromeno[3,4-c]pyridin-8-yl)-2-(4-fluorophenyl) acetamide]",7.41
5,"N#Cc1ccc(-c2cnn(Cc3cccc(C(=O)Nc4ccc5c(c4)OCc4cnccc4-5)c3)c2)cc1 [Example I-27, N-(5H-chromeno[3,4-c]pyridin-8-yl)-3-((4-(4-cyanophenyl)-1H-pyrazol-1-yl)methyl)benzamide]",7.22
6,"O=C(Nc1ccc2c(c1)OCc1cnccc1-2)c1ccc(F)cc1 [Example I-28, N-(5H-chromeno[3,4-c]pyridin-8-yl)-4-fluorobenzamide]",5.46
7,"CS(=O)(=O)c1ccc(C(=O)Nc2ccc3c(c2)OCc2cnccc2-3)cc1 [Example I-29, N-(5H-chromeno[3,4-c]pyridin-8-yl)-4-(methylsulfonyl) benzamide]",5.69
8,"O=C(Nc1ccc2c(c1)OCc1cnccc1-2)c1cnccn1 [Example I-30, N-(5H-chromeno[3,4-c]pyridin-8-yl) pyrazine-2-carboxamide]",5.53
9,"COc1ccc(CC(=O)Nc2ccc3c(c2)OCc2cnccc2-3)cc1 [Example I-31, N-(5H-chromeno[3,4-c]pyridin-8-yl)-2-(4-methoxyphenyl) acetamide]",6.30
10,"O=C(CCCc1ccccc1)Nc1ccc2c(c1)OCc1cnccc1-2 [Example I-32, N-(5H-chromeno[3,4-c]pyridin-8-yl)-4-phenylbutanamide]",6.17
11,"O=C(Cc1ccccn1)Nc1ccc2c(c1)OCc1cnccc1-2 [Example I-33, N-(5H-chromeno[3,4-c]pyridin-8-yl)-2-(pyridin-2-yl) acetamide]",6.44
12,"O=C(Cc1ccncc1)Nc1ccc2c(c1)OCc1cnccc1-2 [Example I-34, N-(5H-chromeno[3,4-c]pyridin-8-yl)-2-(pyridin-4-yl) acetamide]",6.68
13,"CC(=O)Nc1cccc(C(=O)Nc2ccc3c(c2)OCc2cnccc2-3)c1 [Example I-35, 3-acetamido-N-(5H-chromeno[3,4-c]pyridin-8-yl) benzamide]",6.36
14,"CC(C)(C(=O)Nc1ccc2c(c1)OCc1cnccc1-2)c1ccccc1 [Example I-36, N-(5H-chromeno [3,4-c]pyridin-8-yl)-2-methyl-2-phenylpropanamide]",6.69
15,"O=C(CCc1ccc(Cl)cc1)Nc1ccc2c(c1)OCc1cnccc1-2 [Example I-37, 3-(4-chlorophenyl)-N-(5H-chromeno [3,4-c]pyridin-8-yl) propanamide]",6.49
16,"COC(=O)c1cccc(C(=O)Nc2ccc3c(c2)OCc2cnccc2-3)c1 [Example I-38, methyl 3-(5H-chromeno[3,4-c]pyridin-8-ylcarbamoyl)benzoate]",6.07
17,"O=C(Nc1ccc2c(c1)OCc1cnccc1-2)c1csc(-c2cccnc2)n1 [Example I-39, N-(5H-chromeno[3,4-c]pyridin-8-yl)-2-(pyridin-3-yl) thiazole-4-carboxamide]",6.19

# Source: patent US9663529B2, “Tricyclic pyrido-carboxamide derivatives as rock inhibitors” (BRISTOL-MYERS SQUIBB COMPANY, priority 2013, dated 2017)
